From patent US7910751B2, “Heterocyclidene acetamide derivative” (Mochida Pharmaceutical Co., Ltd., priority 2005, dated 2011)

These compounds were tested against T1, human TRPV1 (Homo sapiens, UniProt Q8NER1) (assay: Measurement of capsaicin-induced Ca influx in human TRPV1 transformed CHO cell line using FDSS-6000). Conditions: concentration at which the capsaicin concentration-reaction curve is shifted two times to the right, human TRPV1 transformed CHO cells.
T1 construct: expressed in transfected cells; host or cells: CHO-K1
Type: cell-based

T1 sequence (Q8NER1 whole entry): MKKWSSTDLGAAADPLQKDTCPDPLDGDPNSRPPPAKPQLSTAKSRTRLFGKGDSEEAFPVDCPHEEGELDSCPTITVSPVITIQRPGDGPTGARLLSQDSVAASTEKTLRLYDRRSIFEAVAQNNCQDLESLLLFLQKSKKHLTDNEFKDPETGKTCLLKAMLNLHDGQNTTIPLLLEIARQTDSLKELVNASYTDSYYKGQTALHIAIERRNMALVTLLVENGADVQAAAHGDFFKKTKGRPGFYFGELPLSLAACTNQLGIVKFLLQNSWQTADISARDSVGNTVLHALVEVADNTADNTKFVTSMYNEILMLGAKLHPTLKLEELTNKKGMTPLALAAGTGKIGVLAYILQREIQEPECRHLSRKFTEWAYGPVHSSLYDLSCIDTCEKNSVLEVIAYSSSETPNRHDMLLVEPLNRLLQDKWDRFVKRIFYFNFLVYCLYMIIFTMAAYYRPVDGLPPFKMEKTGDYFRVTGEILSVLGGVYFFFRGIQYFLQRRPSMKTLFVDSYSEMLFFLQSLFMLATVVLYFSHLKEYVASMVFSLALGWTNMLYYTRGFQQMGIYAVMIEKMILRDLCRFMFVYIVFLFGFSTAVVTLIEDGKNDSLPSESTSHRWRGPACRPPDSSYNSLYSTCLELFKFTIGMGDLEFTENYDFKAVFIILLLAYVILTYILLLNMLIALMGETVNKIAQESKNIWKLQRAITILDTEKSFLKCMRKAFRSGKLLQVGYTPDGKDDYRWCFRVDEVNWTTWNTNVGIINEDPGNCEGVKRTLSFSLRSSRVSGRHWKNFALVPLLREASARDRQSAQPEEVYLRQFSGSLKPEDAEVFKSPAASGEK

Row | SMILES | A2 VALUE
1 | O=C(/C=C1\CCN(C(=O)C2CCC2)c2cc(C(F)(F)F)ccc21)Nc1cccc2c1CC(O)CC2 (centres unmarked) [Example 84, (E)-2-(1-cyclobutanecarbonyl-7-trifluoromethyl-2,3-dihydroquinolin-4(1H)-ylidene)-N-(7-hydroxy-5,6,7,8-tetrahydronaphthalen-1-yl)acetamide] | A (compounds of the present invention having an A2 value of less than 100 nM are represented by A)
2 | O=C(/C=C1\CCN(C(=O)C2CCC(F)(F)CC2)c2cc(C(F)(F)F)ccc21)Nc1cccc2c1CC(O)CC2 (centres unmarked) [Example 85, (E)-2-(1-(4,4-difluorocyclohexanecarbonyl)-7-trifluoromethyl-2,3-dihydroquinolin-4(1H)-ylidene)-N-(7-hydroxy-5,6,7,8-tetrahydronaphthalen-1-yl)acetamide] | A (compounds of the present invention having an A2 value of less than 100 nM are represented by A)
3 | CC(C)CCC(=O)N1CC/C(=C\C(=O)Nc2cccc3c2CC(O)CC3)c2ccc(C(F)(F)F)cc21 (centres unmarked) [Example 86, (E)-2-(1-(4-methylpentanoyl)-7-trifluoromethyl-2,3-dihydroquinolin-4(1H)-ylidene)-N-(7-hydroxy-5,6,7,8-tetrahydronaphthalen-1-yl)acetamide] | A (compounds of the present invention having an A2 value of less than 100 nM are represented by A)
4 | CC(C)CC(=O)N1CC/C(=C\C(=O)Nc2cccc3c2CC(O)CC3)c2ccc(C(F)(F)F)cc21 (centres unmarked) [Example 87, (E)-2-(1-(3-methylbutanoyl)-7-trifluoromethyl-2,3-dihydroquinolin-4(1H)-ylidene)-N-(7-hydroxy-5,6,7,8-tetrahydronaphthalen-1-yl)acetamide] | A (compounds of the present invention having an A2 value of less than 100 nM are represented by A)
5 | O=C(/C=C1\CCN(C(=O)C2CCC(F)C2)c2cc(C(F)(F)F)ccc21)Nc1cccc2c1CC(O)CC2 (centres unmarked) [Example 88, (E)-2-(1-(3-fluorocyclopentanecarbonyl)-7-trifluoromethyl-2,3-dihydroquinolin-4(1H)-ylidene)-N-(7-hydroxy-5,6,7,8-tetrahydronaphthalen-1-yl)acetamide] | A (compounds of the present invention having an A2 value of less than 100 nM are represented by A)
6 | CC1(C(=O)N2CC/C(=C\C(=O)Nc3cccc4c3CC(O)CC4)c3ccc(C(F)(F)F)cc32)CC1 (centres unmarked) [Example 89, (E)-2-(1-(1-methylcyclopropanecarbonyl)-7-trifluoromethyl-2,3-dihydroquinolin-4(1H)-ylidene)-N-(7-hydroxy-5,6,7,8-tetrahydronaphthalen-1-yl)acetamide] | A (compounds of the present invention having an A2 value of less than 100 nM are represented by A)
7 | CC1(C(=O)N2CC/C(=C\C(=O)Nc3cccc4c3CC(O)CC4)c3ccc(C(F)(F)F)cc32)CCC1 (centres unmarked) [Example 90, (E)-2-(1-(1-methylcyclobutanecarbonyl)-7-trifluoromethyl-2,3-dihydroquinolin-4(1H)-ylidene)-N-(7-hydroxy-5,6,7,8-tetrahydronaphthalen-1-yl)acetamide] | A (compounds of the present invention having an A2 value of less than 100 nM are represented by A)
8 | O=C(/C=C1\CCN(C(=O)CCC(F)(F)F)c2cc(C(F)(F)F)ccc21)Nc1cccc2c1CC(O)CC2 (centres unmarked) [Example 91, (E)-2-(1-(4,4,4-trifluorobutanoyl)-7-trifluoromethyl-2,3-dihydroquinolin-4(1H)-ylidene)-N-(7-hydroxy-5,6,7,8-tetrahydronaphthalen-1-yl)acetamide] | A (compounds of the present invention having an A2 value of less than 100 nM are represented by A)
9 | O=C(/C=C1\CCN(C(=O)CC(F)(F)F)c2cc(C(F)(F)F)ccc21)Nc1cccc2c1CC(O)CC2 (centres unmarked) [Example 92, (E)-2-(1-(3,3,3-trifluoropropanoyl)-7-trifluoromethyl-2,3-dihydroquinolin-4(1H)-ylidene)-N-(7-hydroxy-5,6,7,8-tetrahydronaphthalen-1-yl)acetamide] | A (compounds of the present invention having an A2 value of less than 100 nM are represented by A)
10 | O=C(/C=C1\CCN(C(=O)CCCC(F)(F)F)c2cc(C(F)(F)F)ccc21)Nc1cccc2c1CC(O)CC2 (centres unmarked) [Example 93, (E)-2-(1-(5,5,5-trifluoropentanoyl)-7-trifluoromethyl-2,3-dihydroquinolin-4(1H)-ylidene)-N-(7-hydroxy-5,6,7,8-tetrahydronaphthalen-1-yl)acetamide] | A (compounds of the present invention having an A2 value of less than 100 nM are represented by A)
11 | O=C(/C=C1\CCN(C(=O)Cc2ccccc2)c2cc(C(F)(F)F)ccc21)Nc1cccc2c1CC(O)CC2 (centres unmarked) [Example 94, (E)-2-(1-phenylacetyl-7-trifluoromethyl-2,3-dihydroquinolin-4(1H)-ylidene)-N-(7-hydroxy-5,6,7,8-tetrahydronaphthalen-1-yl)acetamide] | A (compounds of the present invention having an A2 value of less than 100 nM are represented by A)
12 | CCC(F)(F)C(=O)N1CC/C(=C\C(=O)Nc2cccc3c2CC(O)CC3)c2ccc(C(F)(F)F)cc21 (centres unmarked) [Example 95, (E)-2-(1-(2,2-difluorobutanoyl)-7-trifluoromethyl-2,3-dihydroquinolin-4(1H)-ylidene)-N-(7-hydroxy-5,6,7,8-tetrahydronaphthalen-1-yl)acetamide] | A (compounds of the present invention having an A2 value of less than 100 nM are represented by A)
13 | CC(C)(F)C(=O)N1CC/C(=C\C(=O)Nc2cccc3c2CC(O)CC3)c2ccc(C(F)(F)F)cc21 (centres unmarked) [Example 96, (E)-2-(1-(2-fluoro-2-methylpropanoyl)-7-trifluoromethyl-2,3-dihydroquinolin-4(1H)-ylidene)-N-(7-hydroxy-5,6,7,8-tetrahydronaphthalen-1-yl)acetamide] | A (compounds of the present invention having an A2 value of less than 100 nM are represented by A)
14 | O=C(/C=C1\CCN(C2CCCCC2)c2cc(C(F)(F)F)ccc21)Nc1ccc2cccnc2c1 [Example 97, (E)-2-(7-trifluoromethyl-2,3-dihydro-1-cyclohexylquinolin-4(1H)-ylidene)-N-(quinolin-7-yl)acetamide] | A (compounds of the present invention having an A2 value of less than 100 nM are represented by A)
15 | Cc1ccc(S(=O)(=O)N2CC/C(=C\C(=O)Nc3ccc4cccnc4c3)c3ccc(C(F)(F)F)cc32)cc1 [Example 98, (E)-2-(7-trifluoromethyl-2,3-dihydro-1-(4-methylbenzenesulfonyl)quinolin-4(1H)-ylidene)-N-(quinolin-7-yl)acetamide] | A (compounds of the present invention having an A2 value of less than 100 nM are represented by A)
16 | O=C(/C=C1\CCN(C(=O)C2CC2)c2cc(C(F)(F)F)ccc21)Nc1ccc2cccnc2c1 [Example 99, (E)-2-(7-trifluoromethyl-2,3-dihydro-1-cyclopropanecarbonylquinolin-4(1H)-ylidene)-N-(quinolin-7-yl)acetamide] | A (compounds of the present invention having an A2 value of less than 100 nM are represented by A)
17 | COCCC(=O)N1CC/C(=C\C(=O)Nc2ccc3cccnc3c2)c2ccc(C(F)(F)F)cc21 [Example 100, (E)-2-(7-trifluoromethyl-2,3-dihydro-1-(3-methoxypropanoyl)quinolin-4(1H)-ylidene)-N-(quinolin-7-yl)acetamide] | A (compounds of the present invention having an A2 value of less than 100 nM are represented by A)
18 | COC(=O)CCC(=O)N1CC/C(=C\C(=O)Nc2ccc3cccnc3c2)c2ccc(C(F)(F)F)cc21 [Example 101, (E)-2-(7-trifluoromethyl-2,3-dihydro-1-(3-(carbomethoxy)propanoyl)quinolin-4(1H)-ylidene)-N-(quinolin-7-yl)acetamide] | A (compounds of the present invention having an A2 value of less than 100 nM are represented by A)
19 | O=C(/C=C1\CCN(C(=O)CC2CCCC2)c2cc(C(F)(F)F)ccc21)Nc1ccc2cccnc2c1 [Example 102, (E)-2-(7-trifluoromethyl-2,3-dihydro-1-(cyclopentylacetyl)quinolin-4(1H)-ylidene)-N-(quinolin-7-yl)acetamide] | A (compounds of the present invention having an A2 value of less than 100 nM are represented by A)
20 | O=C(/C=C1\CCN(C(=O)C2CC2)c2cc(C(F)(F)F)ccc21)Nc1cccc2c1CC(O)CC2 (centres unmarked) [Example 105, (E)-2-(7-trifluoromethyl-2,3-dihydro-1-cyclopropanecarbonylquinolin-4(1H)-ylidene)-N-(7-hydroxy-5,6,7,8-tetrahydronaphthalen-1-yl)acetamide] | A (compounds of the present invention having an A2 value of less than 100 nM are represented by A)
21 | O=C(/C=C1\CCNc2cc(C(F)(F)F)ccc21)Nc1cccc2c1CC(O)CC2 (centres unmarked) [Example 106, (E)-2-(7-trifluoromethyl-2,3-dihydroquinolin-4(1H)-ylidene)-N-(7-hydroxy-5,6,7,8-tetrahydronaphthalen-1-yl)acetamide] | A (compounds of the present invention having an A2 value of less than 100 nM are represented by A)
22 | CCCCC(=O)N1CC/C(=C\C(=O)Nc2cccc3c2CC(O)C(=O)N3)c2ccc(C(F)(F)F)cc21 (centres unmarked) [Example 107, (E)-2-(7-trifluoromethyl-2,3-dihydro-1-pentanoylquinolin-4(1H)-ylidene)-N-(3,4-dihydro-3-hydroxy(1H)quinolin-2-on-5-yl)acetamide] | A (compounds of the present invention having an A2 value of less than 100 nM are represented by A)
23 | CCCCC(=O)N1CC/C(=C\C(=O)Nc2cccc3c2CC(O)CN3)c2ccc(C(F)(F)F)cc21 (centres unmarked) [Example 108, (E)-2-(7-trifluoromethyl-2,3-dihydro-1-pentanoylquinolin-4(1H)-ylidene)-N-(3-hydroxy-1,2,3,4-tetrahydroquinolin-5-yl)acetamide] | A (compounds of the present invention having an A2 value of less than 100 nM are represented by A)
